Assays:
Format in all cases: in vivo
Chenopodium album [1] = test: Herbicidal activity, preemergence test; conditions: pre; sprayed onto soil, 800 g of active material per hectare; evaluated 3 weeks after treatment
Procedure: (§1) To evaluate their herbicidal activity, compounds according to the invention are tested using a representative range of plants: TRZAW Triticum aestivum HORVW Hordeum vulgare ZEAMX Zea mays GOSHI Gossypium hirsutum HELAN Helianthus annuus GLYMA Glycine max ALOMY Alopecurus myosuroides SETVI Setaria viridis ECHCG Echinochloa crus-galli GALAP Galium aparine STEME Stellaria media VERPE Veronica persica VIOAR Viola arvensis IPOHE Ipomoea hederacea LAMPU Lamium purpureum PAPRH Papaver rhoeas MATIN Matricaria inodora AMARE Amaranthus retroflexus ABUTH Abutilon theophrasti AMBEL Ambrosia artemisifolia CHEAL Chenopodium album
(§2) The tests fall into two categories, preemergence and postemergence. The preemergence tests involve spraying a liquid formulation of the compound onto the soil in which the seeds have recently been sown. The postemergence tests involve spraying a liquid formulation of the compound onto seedling plants.
(§3) The soil used in the tests is a prepared horticultural loam.
(§4) The formulations used in the tests are prepared from solutions of the test compounds in acetone containing 0.4% by weight of an alkylphenol/ethylene oxide condensate available under the trade mark TRITON X-155. These acetone solutions are diluted with water and the resulting formulations applied at dosage levels corresponding to 800 g of active material per hectare in a volume equivalent to 900 litres per hectare.
(§5) In the preemergence tests untreated sown soil and in the postemergence tests untreated soil bearing seedling plants are used as controls.
(§6) Results of herbicide evaluation are expressed on a rating scale (0-9). The scale is based upon a visual observation of plant stand, vigor, malformation, size, chlorosis, and general plant appearance as compared to a control. Preemergence and postemergence treatments are evaluated at 3 and 2 weeks after treatment, respectively.

Hordeum vulgare [2] = test: Herbicidal activity, preemergence test; conditions: pre; sprayed onto soil, 800 g of active material per hectare; evaluated 3 weeks after treatment
Procedure: as §1, §2, §3, §4, §5, §6

Gossypium hirsutum [3] = test: Herbicidal activity, preemergence test; conditions: pre; sprayed onto soil, 800 g of active material per hectare; evaluated 3 weeks after treatment
Procedure: as §1, §2, §3, §4, §5, §6

Papaver rhoeas [4] = test: Herbicidal activity, preemergence test; conditions: pre; sprayed onto soil, 800 g of active material per hectare; evaluated 3 weeks after treatment
Procedure: as §1, §2, §3, §4, §5, §6

Veronica persica [5] = test: Herbicidal activity, preemergence test; conditions: pre; sprayed onto soil, 800 g of active material per hectare; evaluated 3 weeks after treatment
Procedure: as §1, §2, §3, §4, §5, §6

Ambrosia artemisifolia [6] = test: Herbicidal activity, preemergence test; conditions: pre; sprayed onto soil, 800 g of active material per hectare; evaluated 3 weeks after treatment
Procedure: as §1, §2, §3, §4, §5, §6

Ipomoea hederacea [7] = test: Herbicidal activity, preemergence test; conditions: pre; sprayed onto soil, 800 g of active material per hectare; evaluated 3 weeks after treatment
Procedure: as §1, §2, §3, §4, §5, §6

Alopecurus myosuroides [8] = test: Herbicidal activity, preemergence test; conditions: pre; sprayed onto soil, 800 g of active material per hectare; evaluated 3 weeks after treatment
Procedure: as §1, §2, §3, §4, §5, §6

Amaranthus retroflexus [9] = test: Herbicidal activity, preemergence test; conditions: pre; sprayed onto soil, 800 g of active material per hectare; evaluated 3 weeks after treatment
Procedure: as §1, §2, §3, §4, §5, §6

Glycine max [10] = test: Herbicidal activity, preemergence test; conditions: pre; sprayed onto soil, 800 g of active material per hectare; evaluated 3 weeks after treatment
Procedure: as §1, §2, §3, §4, §5, §6

Triticum aestivum [11] = test: Herbicidal activity, preemergence test; conditions: pre; sprayed onto soil, 800 g of active material per hectare; evaluated 3 weeks after treatment
Procedure: as §1, §2, §3, §4, §5, §6

Galium aparine [12] = test: Herbicidal activity, preemergence test; conditions: pre; sprayed onto soil, 800 g of active material per hectare; evaluated 3 weeks after treatment
Procedure: as §1, §2, §3, §4, §5, §6

Setaria viridis [13] = test: Herbicidal activity, preemergence test; conditions: pre; sprayed onto soil, 800 g of active material per hectare; evaluated 3 weeks after treatment
Procedure: as §1, §2, §3, §4, §5, §6

Abutilon theophrasti [14] = test: Herbicidal activity, preemergence test; conditions: pre; sprayed onto soil, 800 g of active material per hectare; evaluated 3 weeks after treatment
Procedure: as §1, §2, §3, §4, §5, §6

Matricaria inodora [15] = test: Herbicidal activity, preemergence test; conditions: pre; sprayed onto soil, 800 g of active material per hectare; evaluated 3 weeks after treatment
Procedure: as §1, §2, §3, §4, §5, §6

Stellaria media [16] = test: Herbicidal activity, preemergence test; conditions: pre; sprayed onto soil, 800 g of active material per hectare; evaluated 3 weeks after treatment
Procedure: as §1, §2, §3, §4, §5, §6

Lamium purpureum [17] = test: Herbicidal activity, preemergence test; conditions: pre; sprayed onto soil, 800 g of active material per hectare; evaluated 3 weeks after treatment
Procedure: as §1, §2, §3, §4, §5, §6

Zea mays [18] = test: Herbicidal activity, preemergence test; conditions: pre; sprayed onto soil, 800 g of active material per hectare; evaluated 3 weeks after treatment
Procedure: as §1, §2, §3, §4, §5, §6

Chenopodium album [19] = test: Herbicidal activity, postemergence test; conditions: post; sprayed onto seedling plants, 800 g of active material per hectare; evaluated 2 weeks after treatment
Procedure: as §1, §2, §3, §4, §5, §6

Hordeum vulgare [20] = test: Herbicidal activity, postemergence test; conditions: post; sprayed onto seedling plants, 800 g of active material per hectare; evaluated 2 weeks after treatment
Procedure: as §1, §2, §3, §4, §5, §6

Gossypium hirsutum [21] = test: Herbicidal activity, postemergence test; conditions: post; sprayed onto seedling plants, 800 g of active material per hectare; evaluated 2 weeks after treatment
Procedure: as §1, §2, §3, §4, §5, §6

Papaver rhoeas [22] = test: Herbicidal activity, postemergence test; conditions: post; sprayed onto seedling plants, 800 g of active material per hectare; evaluated 2 weeks after treatment
Procedure: as §1, §2, §3, §4, §5, §6

Veronica persica [23] = test: Herbicidal activity, postemergence test; conditions: post; sprayed onto seedling plants, 800 g of active material per hectare; evaluated 2 weeks after treatment
Procedure: as §1, §2, §3, §4, §5, §6

Ambrosia artemisifolia [24] = test: Herbicidal activity, postemergence test; conditions: post; sprayed onto seedling plants, 800 g of active material per hectare; evaluated 2 weeks after treatment
Procedure: as §1, §2, §3, §4, §5, §6

Ipomoea hederacea [25] = test: Herbicidal activity, postemergence test; conditions: post; sprayed onto seedling plants, 800 g of active material per hectare; evaluated 2 weeks after treatment
Procedure: as §1, §2, §3, §4, §5, §6

Alopecurus myosuroides [26] = test: Herbicidal activity, postemergence test; conditions: post; sprayed onto seedling plants, 800 g of active material per hectare; evaluated 2 weeks after treatment
Procedure: as §1, §2, §3, §4, §5, §6

Amaranthus retroflexus [27] = test: Herbicidal activity, postemergence test; conditions: post; sprayed onto seedling plants, 800 g of active material per hectare; evaluated 2 weeks after treatment
Procedure: as §1, §2, §3, §4, §5, §6

Glycine max [28] = test: Herbicidal activity, postemergence test; conditions: post; sprayed onto seedling plants, 800 g of active material per hectare; evaluated 2 weeks after treatment
Procedure: as §1, §2, §3, §4, §5, §6

Triticum aestivum [29] = test: Herbicidal activity, postemergence test; conditions: post; sprayed onto seedling plants, 800 g of active material per hectare; evaluated 2 weeks after treatment
Procedure: as §1, §2, §3, §4, §5, §6

Galium aparine [30] = test: Herbicidal activity, postemergence test; conditions: post; sprayed onto seedling plants, 800 g of active material per hectare; evaluated 2 weeks after treatment
Procedure: as §1, §2, §3, §4, §5, §6

Setaria viridis [31] = test: Herbicidal activity, postemergence test; conditions: post; sprayed onto seedling plants, 800 g of active material per hectare; evaluated 2 weeks after treatment
Procedure: as §1, §2, §3, §4, §5, §6

Abutilon theophrasti [32] = test: Herbicidal activity, postemergence test; conditions: post; sprayed onto seedling plants, 800 g of active material per hectare; evaluated 2 weeks after treatment
Procedure: as §1, §2, §3, §4, §5, §6

Matricaria inodora [33] = test: Herbicidal activity, postemergence test; conditions: post; sprayed onto seedling plants, 800 g of active material per hectare; evaluated 2 weeks after treatment
Procedure: as §1, §2, §3, §4, §5, §6

Stellaria media [34] = test: Herbicidal activity, postemergence test; conditions: post; sprayed onto seedling plants, 800 g of active material per hectare; evaluated 2 weeks after treatment
Procedure: as §1, §2, §3, §4, §5, §6

Lamium purpureum [35] = test: Herbicidal activity, postemergence test; conditions: post; sprayed onto seedling plants, 800 g of active material per hectare; evaluated 2 weeks after treatment
Procedure: as §1, §2, §3, §4, §5, §6

Zea mays [36] = test: Herbicidal activity, postemergence test; conditions: post; sprayed onto seedling plants, 800 g of active material per hectare; evaluated 2 weeks after treatment
Procedure: as §1, §2, §3, §4, §5, §6

Row | SMILES | CHEAL control rating (0-9) (Chenopodium album [1]) | HORVW control rating (0-9) (Hordeum vulgare [2]) | GOSHI control rating (0-9) (Gossypium hirsutum [3]) | PAPRH control rating (0-9) (Papaver rhoeas [4]) | VERPE control rating (0-9) (Veronica persica [5]) | AMBEL control rating (0-9) (Ambrosia artemisifolia [6]) | IPOHE control rating (0-9) (Ipomoea hederacea [7]) | ALOMY control rating (0-9) (Alopecurus myosuroides [8]) | AMARE control rating (0-9) (Amaranthus retroflexus [9]) | GLXMA control rating (0-9) (Glycine max [10]) | TRZAW control rating (0-9) (Triticum aestivum [11]) | GALAP control rating (0-9) (Galium aparine [12]) | SETVI control rating (0-9) (Setaria viridis [13]) | ABUTH control rating (0-9) (Abutilon theophrasti [14]) | MATIN control rating (0-9) (Matricaria inodora [15]) | STEME control rating (0-9) (Stellaria media [16]) | LAMPU control rating (0-9) (Lamium purpureum [17]) | ZEAMX control rating (0-9) (Zea mays [18]) | CHEAL control rating (0-9) (Chenopodium album [19]) | HORVW control rating (0-9) (Hordeum vulgare [20]) | other results
1 | O=C(NCc1cccs1)c1nnc(-c2ccc(F)cc2)o1 [Example 8] | 5 (definite injury) | 0 (no effect) | 2 (slight effect) | 9 (complete kill) | 7 (good herbicidal effect) | 3 (moderate effect) | 0 (no effect) | 0 (no effect) | 9 (complete kill) | 2 (slight effect) | 0 (no effect) | 0 (no effect) | 3 (moderate effect) | 0 (no effect) | 5 (definite injury) | 7 (good herbicidal effect) | 0 (no effect) | 2 (slight effect) | 4 (injury) | 0 (no effect) | GOSHI control rating (0-9) (Gossypium hirsutum [21]): 0 (no effect); PAPRH control rating (0-9) (Papaver rhoeas [22]): 3 (moderate effect); VERPE control rating (0-9) (Veronica persica [23]): 4 (injury); AMBEL control rating (0-9) (Ambrosia artemisifolia [24]): 3 (moderate effect); IPOHE control rating (0-9) (Ipomoea hederacea [25]): 0 (no effect); ALOMY control rating (0-9) (Alopecurus myosuroides [26]): 0 (no effect); AMARE control rating (0-9) (Amaranthus retroflexus [27]): 8 (approaching complete kill); GLXMA control rating (0-9) (Glycine max [28]): 0 (no effect); TRZAW control rating (0-9) (Triticum aestivum [29]): 0 (no effect); GALAP control rating (0-9) (Galium aparine [30]): 0 (no effect); SETVI control rating (0-9) (Setaria viridis [31]): 0 (no effect); ABUTH control rating (0-9) (Abutilon theophrasti [32]): 3 (moderate effect); MATIN control rating (0-9) (Matricaria inodora [33]): 2 (slight effect); STEME control rating (0-9) (Stellaria media [34]): 5 (definite injury); LAMPU control rating (0-9) (Lamium purpureum [35]): 0 (no effect); ZEAMX control rating (0-9) (Zea mays [36]): 0 (no effect)
2 | O=C(NCc1ccccc1)c1nnc(-c2ccc(F)cc2)o1 [Example 9] | 0 (no effect) | 0 (no effect) | 0 (no effect) | 6 (herbicidal effect) | 7 (good herbicidal effect) | 0 (no effect) | 0 (no effect) | 0 (no effect) | 0 (no effect) | 1 (trace effect) | 0 (no effect) | 0 (no effect) | 3 (moderate effect) | 0 (no effect) | 0 (no effect) | 0 (no effect) | 0 (no effect) | 0 (no effect) | 0 (no effect) | 0 (no effect) | GOSHI control rating (0-9) (Gossypium hirsutum [21]): 0 (no effect); PAPRH control rating (0-9) (Papaver rhoeas [22]): 0 (no effect); VERPE control rating (0-9) (Veronica persica [23]): 0 (no effect); AMBEL control rating (0-9) (Ambrosia artemisifolia [24]): 0 (no effect); IPOHE control rating (0-9) (Ipomoea hederacea [25]): 0 (no effect); ALOMY control rating (0-9) (Alopecurus myosuroides [26]): 0 (no effect); AMARE control rating (0-9) (Amaranthus retroflexus [27]): 0 (no effect); GLXMA control rating (0-9) (Glycine max [28]): 0 (no effect); TRZAW control rating (0-9) (Triticum aestivum [29]): 0 (no effect); GALAP control rating (0-9) (Galium aparine [30]): 0 (no effect); SETVI control rating (0-9) (Setaria viridis [31]): 0 (no effect); ABUTH control rating (0-9) (Abutilon theophrasti [32]): 3 (moderate effect); MATIN control rating (0-9) (Matricaria inodora [33]): 0 (no effect); STEME control rating (0-9) (Stellaria media [34]): 0 (no effect); LAMPU control rating (0-9) (Lamium purpureum [35]): 0 (no effect); ZEAMX control rating (0-9) (Zea mays [36]): 0 (no effect)

From EP0726263A2, “Herbicidal (1,3,4)oxadiazoles and thiadiazoles” (American Cyanamid Company, priority 1995, dated 1996)
